In ChEMBL document CHEMBL1201862, “PubChem BioAssay data set” (2004):
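Cultured in 96-well plates, cells were exposed to test compound for 48 hours across five concentrations. Abbreviation: GI50, concentration required for 50% inhibition of growth.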 Calls of active or inactive are those of the source. Cut-off read from the data, not from the text of the source: active = GI50 up to about 1.1 µM and inactive = higher. Residues, ends and D or L forms follow the SMILES beside them.

What was measured:
Experiment in all cases: DTP human tumour cell line panel, 48 h
[1] = test system: HL-60
[2] = test system: UACC-62
[3] = test system: DU-145
[4] = test system: SK-MEL-5
[5] = test system: NCI-H226
[6] = test system: EKVX
[7] = test system: HOP-62
[8] = test system: SK-OV-3
[9] = test system: KM12
[10] = test system: OVCAR-3
[11] = test system: LOX IMVI
[12] = test system: SK-MEL-28
[13] = test system: T47D
[14] = test system: CCRF-CEM
[15] = test system: UO-31
[16] = test system: IGROV-1
[17] = test system: M14
[18] = test system: COLO 205

Compound	GI50 [1]	GI50 [2]	GI50 [3]	GI50 [4]	GI50 [5]	GI50 [6]	GI50 [7]	GI50 [8]	GI50 [9]	GI50 [10]	GI50 [11]	GI50 [12]	GI50 [13]	GI50 [14]	GI50 [15]	GI50 [16]	GI50 [17]	GI50 [18]
O=c1n(-c2ccccc2)c(=O)n2n1C1Cc3ccccc3C12 (stereo not given)	> 100 µM (inactive)	> 100 µM (inactive)	> 100 µM (inactive)	> 100 µM (inactive)	> 100 µM (inactive)	> 100 µM (inactive)	> 100 µM (inactive)	> 100 µM (inactive)	> 100 µM (inactive)	> 100 µM (inactive)	> 100 µM (inactive)	> 100 µM (inactive)	> 100 µM (inactive)	> 100 µM (inactive)	> 100 µM (inactive)	> 100 µM (inactive)	> 100 µM (inactive)	> 100 µM (inactive)
Cc1nc2c(=O)n3c4c(cccc4c2o1)CCC3	> 100 µM (inactive)	> 100 µM (inactive)	> 100 µM (inactive)	> 100 µM (inactive)	> 100 µM (inactive)	76.6 µM (inactive)	> 100 µM (inactive)	> 100 µM (inactive)	> 100 µM (inactive)	> 100 µM (inactive)	> 100 µM (inactive)	> 100 µM (inactive)	> 100 µM (inactive)	> 100 µM (inactive)	> 100 µM (inactive)	76.6 µM (inactive)	> 100 µM (inactive)	> 100 µM (inactive)
S=C1N=C2C(=N1)n1c3c(c4ccccc41)CCCC23 (stereo not given)	55.8 µM (inactive)	59.2 µM (inactive)	> 100 µM (inactive)	36.8 µM (inactive)	34.9 µM (inactive)	> 100 µM (inactive)	46 µM (inactive)	> 100 µM (inactive)	49.2 µM (inactive)	52.4 µM (inactive)	14.6 µM (inactive)	> 100 µM (inactive)	26 µM (inactive)	48.6 µM (inactive)	60.5 µM (inactive)	32.6 µM (inactive)	> 100 µM (inactive)	42 µM (inactive)
CCC(C)C(NC(=O)C1CCCN1)C(=O)NC(C(=O)NCC(=O)NC(CC(N)=O)C(=O)NC(CC(C)C)C(=O)NC(CC(C)C)C(=O)NC(CCCCN)C(N)=O)C(C)C (stereo not given) (H-PIVGNLLK-NH2; configuration not given here)	23 µM (inactive)	> 75 µM (inactive)	> 75 µM (inactive)	> 75 µM (inactive)	> 75 µM (inactive)	> 75 µM (inactive)	> 75 µM (inactive)	> 75 µM (inactive)	> 75 µM (inactive)	> 75 µM (inactive)	> 75 µM (inactive)	> 75 µM (inactive)	> 75 µM (inactive)	> 75 µM (inactive)	> 75 µM (inactive)	> 75 µM (inactive)	> 75 µM (inactive)	> 75 µM (inactive)
C(=N/Nc1ccccn1)/c1cccnc1	> 100 µM (inactive)	94.6 µM (inactive)	> 100 µM (inactive)	> 100 µM (inactive)	> 100 µM (inactive)	49.4 µM (inactive)	> 100 µM (inactive)	> 100 µM (inactive)	68.7 µM (inactive)	> 100 µM (inactive)	> 100 µM (inactive)	87.7 µM (inactive)	> 100 µM (inactive)	> 100 µM (inactive)	> 100 µM (inactive)	> 100 µM (inactive)	62.7 µM (inactive)	> 100 µM (inactive)
Cc1noc(NS(=O)(=O)c2ccc(NC(=O)c3ccc4nc5ccccc5c(Nc5ccc(S(=O)(=O)Nc6onc(C)c6C)cc5)c4c3)cc2)c1C	42.3 µM (inactive)	> 100 µM (inactive)	> 100 µM (inactive)	49.4 µM (inactive)	> 100 µM (inactive)	> 100 µM (inactive)	> 100 µM (inactive)	> 100 µM (inactive)	> 100 µM (inactive)	70.3 µM (inactive)	21 µM (inactive)	> 100 µM (inactive)	40.2 µM (inactive)	42.7 µM (inactive)	> 100 µM (inactive)	> 100 µM (inactive)	> 100 µM (inactive)	> 100 µM (inactive)
Cc1ccc(S(=O)(=O)[N-]C2C(=O)c3ccccc3C(=O)C2[n+]2cccc(C(N)=O)c2)cc1 (stereo not given)	> 100 µM (inactive)	> 100 µM (inactive)	40.6 µM (inactive)	> 100 µM (inactive)	> 100 µM (inactive)	> 100 µM (inactive)	> 100 µM (inactive)	> 100 µM (inactive)	> 100 µM (inactive)	> 100 µM (inactive)	30.7 µM (inactive)	> 100 µM (inactive)	24 µM (inactive)	> 100 µM (inactive)	> 100 µM (inactive)	> 100 µM (inactive)	> 100 µM (inactive)	24.8 µM (inactive)
O=C1C2=C(C(=O)c3c(O)ccc(O)c31)[C@@H](O)[C@@H](O)[C@@H](O)C2	0.635 µM (active)	3.52 µM (inactive)	2.72 µM (inactive)	1.74 µM (inactive)	15.1 µM (inactive)	2.77 µM (inactive)	3.97 µM (inactive)	18.2 µM (inactive)	4.46 µM (inactive)	0.504 µM (active)	2 µM (inactive)	2.26 µM (inactive)	1.1 µM (active)	0.0486 µM (active)	4.66 µM (inactive)	2.75 µM (inactive)	1.86 µM (inactive)	0.0741 µM (active)
O=[N+]([O-])c1ccc(C2=NOC(c3ccc(Cl)cc3)N2C23CC4CC(CC(C4)C2)C3)cc1 (stereo not given)	6.46 µM (inactive)	> 100 µM (inactive)	> 100 µM (inactive)	53 µM (inactive)	64.9 µM (inactive)	> 100 µM (inactive)	> 100 µM (inactive)	> 100 µM (inactive)	> 100 µM (inactive)	> 100 µM (inactive)	> 100 µM (inactive)	> 100 µM (inactive)	35.2 µM (inactive)	> 100 µM (inactive)	> 100 µM (inactive)	> 100 µM (inactive)	> 100 µM (inactive)	> 100 µM (inactive)
CCC[C@@H](O)C[C@@H]1CCC[C@H](C[C@@H](O)CC)N1C	> 100 µM (inactive)	> 100 µM (inactive)	> 100 µM (inactive)	> 100 µM (inactive)	> 100 µM (inactive)	29.7 µM (inactive)	> 100 µM (inactive)	> 100 µM (inactive)	> 100 µM (inactive)	> 100 µM (inactive)	88.1 µM (inactive)	> 100 µM (inactive)	> 100 µM (inactive)	> 100 µM (inactive)	> 100 µM (inactive)	> 100 µM (inactive)	> 100 µM (inactive)	> 100 µM (inactive)
COc1ccc(-n2c(=O)n(-c3ccccc3)c(=O)n2-c2ccc(OC)cc2)cc1	> 100 µM (inactive)	> 100 µM (inactive)	> 100 µM (inactive)	> 100 µM (inactive)	> 100 µM (inactive)	> 100 µM (inactive)	> 100 µM (inactive)	> 100 µM (inactive)	> 100 µM (inactive)	> 100 µM (inactive)	> 100 µM (inactive)	> 100 µM (inactive)	> 100 µM (inactive)	> 100 µM (inactive)	> 100 µM (inactive)	> 100 µM (inactive)	> 100 µM (inactive)	> 100 µM (inactive)
Nc1c2c(nc3ccccc13)-c1ccccc1CCC2	10.1 µM (inactive)	10.7 µM (inactive)	15.5 µM (inactive)	7.91 µM (inactive)	13.6 µM (inactive)	17.3 µM (inactive)	10.2 µM (inactive)	15.2 µM (inactive)	14.1 µM (inactive)	14.1 µM (inactive)	12.7 µM (inactive)	12.7 µM (inactive)	13.2 µM (inactive)	13.5 µM (inactive)	10.5 µM (inactive)	14.1 µM (inactive)	13.1 µM (inactive)	14.1 µM (inactive)
FC(F)(F)c1cccc(-c2nc3nc(Cl)c(Cl)nc3[nH]2)c1	1.69 µM (inactive)	0.562 µM (active)	3.29 µM (inactive)	0.544 µM (active)	1.67 µM (inactive)	2.96 µM (inactive)	3.22 µM (inactive)	2.86 µM (inactive)	2.69 µM (inactive)	1.59 µM (inactive)	2.92 µM (inactive)	3.13 µM (inactive)	1.29 µM (inactive)	1.95 µM (inactive)	2.24 µM (inactive)	2.99 µM (inactive)	3.42 µM (inactive)	1.45 µM (inactive)
Cc1cc2c(cc1C)C(=O)c1ncccc1C2=O	11.2 µM (inactive)	30.3 µM (inactive)	24.2 µM (inactive)	7 µM (inactive)	40.1 µM (inactive)	17.4 µM (inactive)	71.3 µM (inactive)	87.9 µM (inactive)	31.5 µM (inactive)	3.06 µM (inactive)	29.4 µM (inactive)	50.5 µM (inactive)	34.8 µM (inactive)	30.4 µM (inactive)	37.3 µM (inactive)	31.2 µM (inactive)	23.6 µM (inactive)	18.3 µM (inactive)
COC(=O)C(Cc1ccccc1)NP(=O)(O)OCC1OC(n2ccc(N)nc2=O)C(O)C1O (stereo not given)	> 100 µM (inactive)	> 100 µM (inactive)	> 100 µM (inactive)	> 100 µM (inactive)	> 100 µM (inactive)	> 100 µM (inactive)	> 100 µM (inactive)	> 100 µM (inactive)	> 100 µM (inactive)	> 100 µM (inactive)	> 100 µM (inactive)	> 100 µM (inactive)	> 100 µM (inactive)	50.9 µM (inactive)	> 100 µM (inactive)	> 100 µM (inactive)	> 100 µM (inactive)	> 100 µM (inactive)
